≈ marks a conversion by molar mass, not a printed value.
How the values were obtained:
Format in all cases: physicochemical
[1] = Solubility in toluene (Compound Properties, Table 1); conditions: organic solvent or mixture
[2] = Solubility as observed during work-up of the synthesis; conditions: for solubility of the isolated solid (in words): in toluene and dichloromethane (DCM)
Procedure: To 2.0 g of dichlorobathophenanthroline (5 mM) from Example 1 was added 3.0 g (11 mM) boronic acid. To this was added 0.15 g Pd2 DBA3 (0.15 mM), 0.1 g tricyclohexylphosphine (0.35 mM) and 3.75 g potassium phosphate (17 mM), and all were dissolved into 30 mL dioxane and 15 mL water. This was mixed and heated in a glove box at 100° C. for 1 hr, then warmed gently (minimum rheostat setting) under nitrogen overnight. On reaching about 80° C. the mixture was a tan brown slurry which slowly became clear brown with a dense precipitate. As the solution refluxed (air condensor) a white powdery precipitate formed. The mixture was cooled and removed from the glove box. The dioxane was removed by evaporation and additional water added. A light brown gummy solid was isolated by filtration and washed with water. […] The product was Compound 4.
Take 2.0 g of dichloro-phen (8 mM) in glove box and add 4.7 g (17 mM) boronic acid. Add 0.15 g Pd2 DBA3 (0.15 mM), 0.1 g tricyclohexylphosphine (0.35 mM) and 3.75 g potassium phosphate (17 mM) and dissolve all into 30 mL dioxane and 15 mL water. Mix and heat in glove box in mantle at 100 C for 1 hr then warm gently (minimum rheostat setting) under nitrogen overnight. Solution immediately is dark purple but on reaching ˜80 C it is a tan brown slurry which slowly becomes clear brown. As the solution refluxes (air condensor) it remains clear brown. Cool and work up by removing from glove box and evaporate out the dioxane then add more water. Filter off light brown gummy solid and wash with water. […] The structure was confirmed by NMR analysis to be Compound 14:
Take 2.5 g of dichloro-phen (10 mM) in glove box and add 8.0 g (22 mM) boronic ester. Add 0.30 g Pd2 DBA3 (0.30 mM), 0.2 g tricylcohexylphosphine (0.70 mM) and 7.5 g potassium phosphate (34 mM) and dissolve all into 60 mL dioxane and 30 mL water. Mix and heat in glove box in mantle at 100 C for 1 hr then warm gently (minimum rheostat setting) under nitrogen overnight. Solution immediately is dark purple but on reaching ˜80 C it is a tan brown slurry which slowly becomes clear brown. […]

[3] = Solubility in anisole (footnotes of Table 1); conditions: organic solvent or mixture

| Structure (SMILES) | solubility [1] [µg/mL] | further results |
| --- | --- | --- |
| c1ccc(-c2cc(-c3ccccc3)c3ccc4c(-c5ccccc5)cc(-c5ccc6ccccc6c5)nc4c3n2)cc1 [Compound 18] | 2300 (≈ 4.3 mM) | – |
| c1ccc(-c2cc(-c3ccc(N(c4ccccc4)c4ccccc4)cc3)nc3c2ccc2c(-c4ccccc4)cc(-c4ccc(N(c5ccccc5)c5ccccc5)cc4)nc23)cc1 [Compound 4] | 31300 (≈ 38.2 mM) | solubility of the isolated solid (in words) [2]: dissolved well |
| c1ccc(-c2cc(-c3ccccc3)c3ccc4c(-c5ccccc5)cc(-c5cccc6ccccc56)nc4c3n2)cc1 [Compound 17] | 4200 (≈ 7.86 mM) | – |
| c1ccc(-c2ccccc2-c2cc(-c3ccccc3)c3ccc4c(-c5ccccc5)cc(-c5ccccc5-c5ccccc5)nc4c3n2)cc1 [Compound 9] | 25600 (≈ 40.2 mM) | – |
| c1ccc(-c2cc(-c3ccc(N(c4ccccc4)c4ccccc4)cc3)c3ccc4c(-c5ccc(N(c6ccccc6)c6ccccc6)cc5)cc(-c5ccccc5)nc4c3n2)cc1 [Compound 2] | 7600 (≈ 9.28 mM) | – |
| c1ccc(-c2cc(-c3ccc4ccccc4c3)nc3c2ccc2c(-c4ccccc4)cc(-c4ccc5ccccc5c4)nc23)cc1 [Compound 21] | 1000 (≈ 1.71 mM) | solubility [3]: 3000 µg/mL (≈ 5.13 mM) |
| c1ccc(N(c2ccccc2)c2ccc(-c3ccnc4c3ccc3c(-c5ccc(N(c6ccccc6)c6ccccc6)cc5)ccnc34)cc2)cc1 [Compound 14, 4,7-bis(4-diphenylaminophenyl)-1,10-phenanthroline] | – | solubility of the isolated solid (in words) [2]: dissolves well |
| c1ccc(-c2cc(-c3c4ccccc4c(-c4ccc(-c5cccc6ccccc56)cc4)c4ccccc34)nc3c2ccc2c(-c4ccccc4)cc(-c4c5ccccc5c(-c5ccc(-c6cccc7ccccc67)cc5)c5ccccc45)nc23)cc1 [Compound 11] | 10100 (≈ 9.27 mM) | – |
| c1ccc(N(c2ccccc2)c2cccc(-c3ccnc4c3ccc3c(-c5cccc(N(c6ccccc6)c6ccccc6)c5)ccnc34)c2)cc1 [Compound 20] | 32200 (≈ 48.3 mM) | – |
| c1ccc(-c2cc(-c3ccc(-c4cccc5ccccc45)cc3)nc3c2ccc2c(-c4ccccc4)cc(-c4ccc(-c5cccc6ccccc56)cc4)nc23)cc1 [Compound 3] | 4500 (≈ 6.11 mM) | – |
| c1ccc(-c2cc(-c3ccc(-c4ccc5ccccc5c4)cc3)nc3c2ccc2c(-c4ccccc4)cc(-c4ccc(-c5ccc6ccccc6c5)cc4)nc23)cc1 [Compound 13] | 2000 (≈ 2.71 mM) | – |
| c1ccc(-c2cc(-c3cccc(-n4c5ccccc5c5ccccc54)c3)nc3c2ccc2c(-c4ccccc4)cc(-c4cccc(-n5c6ccccc6c6ccccc65)c4)nc23)cc1 [Compound 1] | 4800 (≈ 5.89 mM) | – |

More lines, main results first:

| solubility [1] [µg/mL] | Structure (SMILES) | further results |
| --- | --- | --- |
| 22200 (≈ 42.6 mM) | Fc1ccccc1-c1cc(-c2ccccc2)c2ccc3c(-c4ccccc4)cc(-c4ccccc4F)nc3c2n1 [Compound 10] | – |
| 22800 (≈ 20.4 mM) | c1ccc(-c2ccc3c(c2)c2cc(-c4ccccc4)ccc2n3-c2cccc(-c3cc(-c4ccccc4)c4ccc5c(-c6ccccc6)cc(-c6cccc(-n7c8ccc(-c9ccccc9)cc8c8cc(-c9ccccc9)ccc87)c6)nc5c4n3)c2)cc1 [Compound 12] | – |
| 800 (≈ 1.26 mM) | c1ccc(-c2cccc(-c3cc(-c4ccccc4)c4ccc5c(-c6ccccc6)cc(-c6cccc(-c7ccccc7)c6)nc5c4n3)c2)cc1 [Compound 16] | solubility [3]: 5000 µg/mL (≈ 7.85 mM) |
| 20000 (≈ 30.2 mM) | c1cc(-c2ccnc3c2ccc2c(-c4cccc(-n5c6ccccc6c6ccccc65)c4)ccnc23)cc(-n2c3ccccc3c3ccccc32)c1 [Compound 15] | solubility of the product (in words) ([2]; solvent not stated, observed at chromatography/crystallisation): extremely soluble |

Reference: patent US8309731B2, “Electronic device including phenanthroline derivative” (E I du Pont de Nemours and Company, priority 2011, dated 2012)
